Data reported in patent US20260285850A1, “SUBSTITUTED OXAZOLIDINONES AND IMIDAZOLINONES AS HERBICIDES” (FMC CORPORATION, priority 2023, published 2026).

Tests used:
Assay type in all cases: in vivo
[1] = tested on: ryegrass, Italian (italian ryegrass, Lolium multiflorum); assay: Test A postemergence application, visual injury rating 0-100
Outline: (§1)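 Preemergence directed soil spray or postemergence spray (2-10 cm, 1-2 leaf); loam/sand mix; compound in non-phytotoxic solvent + surfactant. Greenhouse, 10 d. Visual injury vs untreated, 0 = none, 100 = complete control.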

[2] = tested on: barnyardgrass (Echinochloa crus-galli); assay: as above
Outline: as §1

[3] = tested on: corn (Zea mays); assay: as above
Outline: as §1

[4] = tested on: horseweed (Erigeron canadensis); assay: as above
Outline: as §1

[5] = tested on: soybean (Glycine max); assay: as above
Outline: as §1

[6] = tested on: ragweed (common ragweed, Ambrosia artemisiifolia); assay: as above
Outline: as §1

[7] = tested on: wheat (Triticum aestivum); assay: as above
Outline: as §1

[8] = tested on: green foxtail (Setaria viridis); assay: as above
Outline: as §1

[9] = tested on: blackgrass (Alopecurus myosuroides); assay: as above
Outline: as §1

[10] = tested on: kochia (Bassia scoparia); assay: as above
Outline: as §1

[11] = tested on: palmer (palmer amaranth, palmer pigweed, Amaranthus palmeri); assay: as above
Outline: as §1

[12] = tested on: galium (catchweed bedstraw, Galium aparine); assay: as above; conditions: Postemergence, 16 g ai/ha, greenhouse 10 days; 0 no effect, 100 complete control
Outline: as §1

[13] = tested on: oat, wild (wild oat, Avena fatua); assay: as above
Outline: as §1

[14] = tested on: ryegrass, Italian (italian ryegrass, Lolium multiflorum); assay: Test A preemergence soil spray, visual injury rating 0-100; conditions: 10 days
Outline: as §1

[15] = tested on: barnyardgrass (Echinochloa crus-galli); assay: as above; conditions: 10 days
Outline: as §1

[16] = tested on: corn (Zea mays); assay: as above; conditions: 10 days
Outline: as §1

[17] = tested on: soybean (Glycine max); assay: as above; conditions: 10 days
Outline: as §1

[18] = tested on: ragweed (common ragweed, Ambrosia artemisiifolia); assay: as above; conditions: 10 days
Outline: as §1

[19] = tested on: wheat (Triticum aestivum); assay: as above; conditions: 10 days
Outline: as §1

[20] = tested on: green foxtail (Setaria viridis); assay: as above; conditions: 10 days
Outline: as §1

[21] = tested on: blackgrass (Alopecurus myosuroides); assay: as above; conditions: 10 days
Outline: as §1

[22] = tested on: kochia (Bassia scoparia); assay: as above; conditions: 10 days
Outline: as §1

[23] = tested on: palmer (palmer amaranth, palmer pigweed, Amaranthus palmeri); assay: as above; conditions: 10 days
Outline: as §1

[24] = tested on: oat, wild (wild oat, Avena fatua); assay: as above; conditions: 10 days
Outline: as §1

[25] = tested on: ducksalad (Heteranthera limosa); assay: Test B flooded paddy test, visual plant response rating 0-100; conditions: 250 g ai/ha, Flood, applied to paddy water, evaluated after 13 days
Outline: (§2)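 Visual scores versus untreated controls were recorded 13 days after treatment of greenhouse-held plants. At the 2-leaf stage, pots were flooded 3 cm above the soil surface and compounds added straight to the water.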

[26] = tested on: rice (Oryza sativa); assay: as above; conditions: 250 g ai/ha, Flood, applied to paddy water, evaluated after 13 days
Outline: as §2

[27] = tested on: barnyardgrass (Echinochloa crusgalli); assay: as above; conditions: 250 g ai/ha, Flood, applied to paddy water, evaluated after 13 days
Outline: as §2

[28] = tested on: sedge, umbrella (small-flower umbrella sedge, Cyperus difformis); assay: as above; conditions: 250 g ai/ha, Flood, applied to paddy water, evaluated after 13 days
Outline: as §2

[29] = 62 g ai/ha, postemergence, 10 days, 0 = no effect, 100 = complete control
[30] = Postemergence, 16 g ai/ha, greenhouse 10 days, 0 no effect, 100 complete control
[31] = 62 g ai/ha, 0 = no effect, 100 = complete control

CC1(C(=O)NC2CC=C(C(=O)OCC(F)F)C2)CN(c2cc(Cl)cc(Cl)c2)C(=O)O1 (stereo not drawn) [Compound 154]
Ryegrass, Italian plant response rating (0-100) [1, 29]: 80 | Ryegrass, Italian plant response rating (0 to 100 scale) [1, 30]: 60 | Barnyardgrass plant response rating (0-100) [2, 29]: 100 | Barnyardgrass plant response rating (0 to 100 scale) [2, 30]: 100 | Corn plant response rating (0-100) [3, 29]: 100 | Corn plant response rating (0 to 100 scale) [3, 30]: 100 | Horseweed plant response rating (0-100) [4, 29]: 70 | Horseweed plant response rating (0 to 100 scale) [4, 30]: 70 | Soybean plant response rating (0-100) [5, 29]: 60 | Soybean plant response rating (0 to 100 scale) [5, 30]: 60 | Ragweed plant response rating (0-100) [6, 29]: 90 | Ragweed plant response rating (0 to 100 scale) [6, 30]: 40 | Wheat plant response rating (0-100) [7, 29]: 90 | Wheat plant response rating (0 to 100 scale) [7, 30]: 70 | Foxtail, Green plant response rating (0-100) [8, 29]: 90 | Foxtail, Green plant response rating (0 to 100 scale) [8, 30]: 80 | Blackgrass plant response rating (0-100) [9, 29]: 0 | Blackgrass plant response rating (0 to 100 scale) [9, 30]: 0 | Kochia plant response rating (0-100) [10, 29]: 90 | Kochia plant response rating (0 to 100 scale) [10, 30]: 90 | Pigweed, Palmer plant response rating (0-100) [11, 29]: 90 | Pigweed, Palmer plant response rating (0 to 100 scale) [11, 30]: 90 | Galium plant response rating (0 to 100 scale) [12]: 50 | Oat, Wild plant response rating (0-100) [13, 29]: 90 | Oat, Wild plant response rating (0 to 100 scale) [13, 30]: 20 | Ryegrass, Italian plant response rating ([14]; 16 g ai/ha, 0 to 100 scale): 30 | Ryegrass, Italian plant response rating (0-100) [14, 31]: 80 | Barnyardgrass plant response rating ([15]; 16 g ai/ha, 0 to 100 scale): 30 | Barnyardgrass plant response rating (0-100) [15, 31]: 90 | Corn plant response rating ([16]; 16 g ai/ha, 0 to 100 scale): 20 | Corn plant response rating (0-100) [16, 31]: 30 | Soybean plant response rating ([17]; 16 g ai/ha, 0 to 100 scale): 0 | Soybean plant response rating (0-100) [17, 31]: 50 | Ragweed plant response rating ([18]; 16 g ai/ha, 0 to 100 scale): 0 | Ragweed plant response rating (0-100) [18, 31]: 50 | Wheat plant response rating ([19]; 16 g ai/ha, 0 to 100 scale): 10 | Wheat plant response rating (0-100) [19, 31]: 60 | Foxtail, Green plant response rating ([20]; 16 g ai/ha, 0 to 100 scale): 40 | Foxtail, Green plant response rating (0-100) [20, 31]: 90 | Blackgrass plant response rating ([21]; 16 g ai/ha, 0 to 100 scale): 0 | Blackgrass plant response rating (0-100) [21, 31]: 0 | Kochia plant response rating ([22]; 16 g ai/ha, 0 to 100 scale): 20 | Kochia plant response rating (0-100) [22, 31]: 90 | Pigweed, Palmer plant response rating ([23]; 16 g ai/ha, 0 to 100 scale): 60 | Pigweed, Palmer plant response rating (0-100) [23, 31]: 100 | Oat, Wild plant response rating ([24]; 16 g ai/ha, 0 to 100 scale): 0 | Oat, Wild plant response rating (0-100) [24, 31]: 20 | Plant response rating, Ducksalad (0 to 100 scale, 0 is no effect and 100 is complete control) [25]: 70 | Plant response rating, Rice (0 to 100 scale, 0 is no effect and 100 is complete control) [26]: 95 | Plant response rating, Barnyardgrass (0 to 100 scale, 0 is no effect and 100 is complete control) [27]: 98 | Plant response rating, Sedge, Umbrella (0 to 100 scale, 0 is no effect and 100 is complete control) [28]: 95
